The experiment addresses HLA B*1503 (Homo sapiens, UniProt P01889, A329T/A93T/A95T/C349S/D201E/D98Y/E187L/E204Q/K202T/N87E/Q94N/R155S/R180L/S121R/S35A/V306I/V36M/Y140S/Y91S). Briefly: biochemical. The format is binding.

Where a SMILES comes first, the peptide text is derived from it.

On to `CC(C)C[C@H](NC(=O)[C@@H](NC(=O)[C@H](CCCNC(=N)N)NC(=O)[C@H](CC(N)=O)NC(=O)[C@H](CC(N)=O)NC(=O)[C@H](CCCCN)NC(=O)[C@@H](N)CCCCN)C(C)C)C(=O)N[C@@H](CS)C(=O)N[C@@H](Cc1ccccc1)C(=O)O` [3102.1237] (H-KKNNRVLCF-OH), for which half-maximal inhibition (IC50) was put at 1.6 nM. On to `CC[C@H](C)[C@H](N)C(=O)N[C@@H](CCCCN)C(=O)N[C@@H](CCCNC(=N)N)C(=O)N[C@H](C(=O)N[C@@H](CO)C(=O)N[C@@H](CO)C(=O)N[C@@H](CO)C(=O)N[C@@H](CC(=O)O)C(=O)N[C@@H](Cc1ccccc1)C(=O)O)C(C)C` [3102.1239] (H-IKRVSSSDF-OH), for which inhibition was half-maximal at 1.8 nM (IC50). `CC(C)C[C@H](NC(=O)[C@H](CC(C)C)NC(=O)[C@H](CCCNC(=N)N)NC(=O)[C@H](CCCNC(=N)N)NC(=O)[C@@H](NC(=O)[C@H](Cc1c[nH]cn1)NC(=O)[C@@H](N)Cc1ccccc1)C(C)C)C(=O)N[C@@H](CCCCN)C(=O)N[C@@H](Cc1ccccc1)C(=O)O` [3102.1241] (H-FHVRRLLKF-OH): inhibition was half-maximal at 21 nM (IC50). The same measure for `CC[C@H](C)[C@H](NC(=O)[C@H](CS)NC(=O)[C@@H](NC(=O)[C@H](CC(N)=O)NC(=O)[C@@H]1CCCN1C(=O)[C@H](Cc1ccc(O)cc1)NC(=O)[C@H](CC(C)C)NC(=O)[C@@H](N)CO)C(C)C)C(=O)N[C@@H](Cc1ccccc1)C(=O)O` [3102.1246] (H-SLYPNVCIF-OH): 4.9 nM; for `CSCC[C@H](NC(=O)[C@@H](N)CCCNC(=N)N)C(=O)N[C@@H](Cc1ccccc1)C(=O)NCC(=O)N[C@@H](CO)C(=O)N[C@@H](CCCCN)C(=O)N1CCC[C@H]1C(=O)N[C@H](C(=O)N[C@@H](Cc1ccccc1)C(=O)O)[C@@H](C)O` [3102.1247] (H-RMFGSKPTF-OH): 0.21 nM; for `CSCC[C@H](NC(=O)[C@H](CCCCN)NC(=O)[C@H](CCC(N)=O)NC(=O)[C@@H](N)CCCCN)C(=O)N[C@@H](Cc1ccccc1)C(=O)N[C@@H](CO)C(=O)N[C@@H](CC(N)=O)C(=O)N[C@@H](CC(N)=O)C(=O)N[C@H](C(=O)O)C(C)C` [3102.1248] (H-KQKMFSNNV-OH): 19 nM. The same measure for `CSCC[C@H](NC(=O)[C@@H](N)CC(C)C)C(=O)N[C@H](C(=O)N[C@@H](CO)C(=O)NCC(=O)N1CCC[C@H]1C(=O)N[C@@H](CC(N)=O)C(=O)N[C@H](C(=O)N[C@H](C(=O)O)C(C)C)C(C)C)C(C)C` [3102.1249] (H-LMVSGPNVV-OH): 3.8 nM; for `CC[C@H](C)[C@H](N)C(=O)N[C@@H](CCCCN)C(=O)N[C@H](C(=O)N[C@H](C(=O)N[C@@H](C)C(=O)N[C@@H](C)C(=O)N[C@@H](CO)C(=O)N1CCC[C@H]1C(=O)N[C@@H](CCSC)C(=O)O)[C@@H](C)O)C(C)C` [3102.1251] (H-IKVTAASPM-OH): 2.8 nM; for `CSCC[C@H](NC(=O)[C@@H](N)CCCCN)C(=O)N[C@@H](C)C(=O)N[C@@H](C)C(=O)N[C@@H](CC(=O)O)C(=O)N[C@@H](CCCNC(=N)N)C(=O)NCC(=O)N[C@@H](C)C(=O)N[C@@H](Cc1ccccc1)C(=O)O` [3102.1255] (H-KMAADRGAF-OH): 2.5 nM. The same measure for `CC(C)[C@H](NC(=O)[C@H](CCCCN)NC(=O)[C@@H](N)CCCCN)C(=O)N[C@@H](Cc1ccc(O)cc1)C(=O)N[C@H](C(=O)N[C@@H](Cc1ccccc1)C(=O)N[C@@H](Cc1ccccc1)C(=O)N[C@@H](CCCCN)C(=O)N[C@@H](Cc1ccccc1)C(=O)O)[C@@H](C)O` [3102.1257] (H-KKVYTFFKF-OH): 3.6 nM. `CC[C@H](C)[C@H](NC(=O)[C@H](Cc1ccc(O)cc1)NC(=O)[C@H](CCC(N)=O)NC(=O)[C@@H](N)Cc1ccc(O)cc1)C(=O)N[C@@H](Cc1ccccc1)C(=O)N[C@@H](CC(C)C)C(=O)N[C@@H](CO)C(=O)N[C@@H](Cc1ccccc1)C(=O)N[C@@H](Cc1ccccc1)C(=O)O` [3102.1259] displayed a half-inhibitory concentration (IC50) of 0.94 nM. In the case of `CC[C@H](C)[C@H](N)C(=O)N[C@@H](CC(C)C)C(=O)N[C@@H](Cc1c[nH]cn1)C(=O)N[C@H](C(=O)N[C@@H](CC(=O)O)C(=O)N[C@H](C(=O)N[C@@H](CC(C)C)C(=O)N[C@@H](CO)C(=O)N[C@@H](Cc1ccccc1)C(=O)O)[C@@H](C)CC)C(C)C` [3102.1261] (H-ILHVDILSF-OH) it was 24 nM; in that of `CC(C)C[C@H](NC(=O)[C@H](CCC(=O)O)NC(=O)[C@@H](NC(=O)[C@H](CO)NC(=O)[C@H](CO)NC(=O)[C@@H](NC(=O)[C@H](CCC(N)=O)NC(=O)[C@@H](N)CO)C(C)C)[C@@H](C)O)C(=O)N[C@@H](Cc1ccccc1)C(=O)O` [3102.1264] (H-SQVSSTELF-OH), 1.8 nM. Consider `CC(C)C[C@H](N)C(=O)N[C@@H](CCCCN)C(=O)N[C@@H](Cc1ccc(O)cc1)C(=O)N[C@@H](Cc1ccc(O)cc1)C(=O)N[C@@H](Cc1ccc(O)cc1)C(=O)N[C@@H](CO)C(=O)N[C@@H](CC(N)=O)C(=O)N[C@@H](CO)C(=O)N[C@@H](Cc1ccc(O)cc1)C(=O)O` [3102.1265] (H-LKYYYSNSY-OH), for which the IC50 is 0.24 nM. In the case of `CC(C)C[C@H](NC(=O)[C@H](CC(N)=O)NC(=O)[C@H](C)NC(=O)[C@H](CO)NC(=O)[C@H](CC(C)C)NC(=O)[C@H](CCCNC(=N)N)NC(=O)[C@H](CC(C)C)NC(=O)[C@@H](N)Cc1ccccc1)C(=O)N[C@@H](Cc1ccccc1)C(=O)O` [3102.1266] (H-FLRLSANLF-OH) it was 0.12 nM; in that of `CC(C)[C@H](NC(=O)[C@H](Cc1ccc(O)cc1)NC(=O)[C@H](CCCNC(=N)N)NC(=O)[C@@H](NC(=O)[C@H](CC(N)=O)NC(=O)[C@H](Cc1ccc(O)cc1)NC(=O)[C@H](CCCCN)NC(=O)[C@@H](N)CCCCN)C(C)C)C(=O)N[C@@H](Cc1ccccc1)C(=O)O` [3102.1267] (H-KKYNVRYVF-OH), 1 nM; in that of `CSCC[C@H](NC(=O)[C@H](C)N)C(=O)N[C@@H](CCCCN)C(=O)N[C@H](C(=O)N[C@@H](CC(=O)O)C(=O)N[C@@H](C)C(=O)N[C@@H](CC(N)=O)C(=O)N[C@@H](Cc1ccc(O)cc1)C(=O)N[C@@H](Cc1ccccc1)C(=O)O)C(C)C` [3102.1268] (H-AMKVDANYF-OH), 0.15 nM. For the molecule `CC(C)C[C@H](NC(=O)[C@@H](N)Cc1ccccc1)C(=O)N[C@@H](CO)C(=O)N[C@@H](CCC(=O)O)C(=O)N1CCC[C@H]1C(=O)N[C@@H](Cc1ccc(O)cc1)C(=O)N[C@@H](CO)C(=O)N[C@@H](Cc1ccc(O)cc1)C(=O)N[C@@H](Cc1ccccc1)C(=O)O` [3102.1270] (H-FLSEPYSYF-OH), 29 nM corresponded to half-maximal inhibition (IC50).

`CC(C)[C@H](NC(=O)[C@H](Cc1ccccc1)NC(=O)[C@H](Cc1c[nH]cn1)NC(=O)[C@H](CCC(N)=O)NC(=O)[C@@H](N)Cc1ccc(O)cc1)C(=O)N[C@@H](C)C(=O)N[C@@H](CCCNC(=N)N)C(=O)N[C@H](C(=O)N[C@@H](Cc1ccccc1)C(=O)O)C(C)C` [3102.1278] (H-YQHFVARVF-OH) displayed an IC50 of 0.4 nM. The same measure for `CC(C)C[C@H](N)C(=O)N[C@@H](CCCCN)C(=O)N[C@@H](CO)C(=O)N1CCC[C@H]1C(=O)N[C@@H](CCCCN)C(=O)N[C@@H](CCCNC(=N)N)C(=O)N[C@@H](CS)C(=O)N[C@@H](CO)C(=O)N[C@@H](Cc1ccccc1)C(=O)O` [3102.1282] (H-LKSPKRCSF-OH): 2.7 nM; for `CSCC[C@H](NC(=O)[C@H](Cc1ccc(O)cc1)NC(=O)[C@H](CC(N)=O)NC(=O)[C@H](Cc1ccc(O)cc1)NC(=O)[C@H](CO)NC(=O)[C@H](CCCCN)NC(=O)[C@@H](NC(=O)[C@H](CCCCN)NC(=O)[C@@H](N)CCCNC(=N)N)C(C)C)C(=O)O` [3102.1285] (H-RKVKSYNYM-OH): 2.6 nM.

(Values after publication PMC2248166, “Quantitative peptide binding motifs for 19 human and mouse MHC class I molecules derived using positional scanning combinatorial peptide libraries” (Immunome Research, 2008).)
